Measurements taken from US9884832B2 (priority 2011, dated 2018).

Each compound was assayed against AM2 S31 (wild-type serine at position 31 in the M2 protein), influenza virus A/Udorn/72 (Influenza A virus, UniProt P0DOF5) (assay: cell-based). Details: 100 uM; Xenopus oocytes; activity range class; read-out: S31 OOcyte Inhibition at 100 uM (%).
Sequence of AM2 S31 (wild-type serine at position 31 in the M2 protein), influenza virus A/Udorn/72 (P0DOF5 whole entry, looked up): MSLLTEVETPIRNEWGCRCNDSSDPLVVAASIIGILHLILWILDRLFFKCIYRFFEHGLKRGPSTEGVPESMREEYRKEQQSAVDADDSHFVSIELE
For `Brc1ccc(CNC23CC4CC(CC(C4)C2)C3)s1` [Example 81a, N-((5-Bromothiophen-2-yl)methyl)adamantan-1-amine], the inhibition at 100 µM was 31 to 95%.
Compound `c1cn(-c2ccc(CNC34CC5CC(CC(C5)C3)C4)s2)cn1` [Example 161a, N-((5-(1H-imidazol-1-yl)thiophen-2-yl)methyl)adamantan-1-amine] has an inhibition at 100 µM of 0 to 30%.
`Cc1ccc(C(C)NC23CC4CC(CC(C4)C2)C3)s1` (stereo not shown) [Example 97a, N-(1-(5-methylthiophen-2-yl)ethyl)adamantan-1-amine] was tested, and the inhibition at 100 µM was 0 to 30%.
In the case of `c1scc2[nH]c(CNC34CC5CC(CC(C5)C3)C4)nc12` [Example 171a, Adamantan-1-yl-(1H-thieno[3,4-d]imidazol-2-ylmethyl)-amine], the inhibition at 100 µM is reported as 0 to 30%.
For `c1csc(-c2noc(CNC34CC5CC(CC(C5)C3)C4)n2)c1` [Example 148a, N-((3-(thiophen-2-yl)-1,2,4-oxadiazol-5-yl)methyl)adamantan-1-amine], the inhibition at 100 µM was 0 to 30%.
Work on `Ic1ccc(CNC23CC4CC(CC(C4)C2)C3)s1` [Example 91a, N-((5-Iodothiophen-2-yl)methyl)adamantan-1-amine] yielded an inhibition at 100 µM of 31 to 95%.
Work on `COc1cc(Cl)sc1CNC12CC3CC(CC(C3)C1)C2` [Example 80a] yielded an inhibition at 100 µM of 31 to 95%.
For `CC(C)(C)c1ccc(-c2noc(CNC34CC5CC(CC(C5)C3)C4)n2)cc1` [Example 124a, N-((3-(4-(tert-butyl)phenyl)-1,2,4-oxadiazol-5-yl)methyl)adamantan-1-amine], the inhibition at 100 µM was 0 to 30%.
In the case of `CC(C)c1nc(CNC23CC4CC(CC(C4)C2)C3)no1` [Example 102a, N-((5-isopropyl-1,2,4-oxadiazol-3-yl)methyl)adamantan-1-amine], the inhibition at 100 µM is reported as 0 to 30%.
`Brc1cccc(CNC23CC4CC(CC(C4)C2)C3)c1` [Example 3a, N-(3-Bromobenzyl)adamantan-1-amine] gave an inhibition at 100 µM of 31 to 95%.
`Clc1ccc(-c2cc(CNC34CC5CC(CC(C5)C3)C4)no2)cc1` [Example 119a, N-((5-(4-chlorophenyl)isoxazol-3-yl)methyl)adamantan-1-amine] showed an inhibition at 100 µM of 0 to 30%.
`Oc1ccc(CNC23CC4CC(CC(O)(C4)C2)C3)c(O)c1` [Example 196a, 4-[(3-Hydroxy-adamantan-1-ylamino)-methyl]-benzene-1,3-diol] showed an inhibition at 100 µM of 0 to 30%.
`c1ccc(-c2nc(CNC34CC5CC(CC(C5)C3)C4)no2)cc1` [Example 131a, N-((5-phenyl-1,2,4-oxadiazol-3-yl)methyl)adamantan-1-amine] gave an inhibition at 100 µM of 0 to 30%.
In the case of `c1csc(-c2ncc(CNC34CC5CC(CC(C5)C3)C4)s2)c1` [Example 144a, N-((2-(thiophen-2-yl)thiazol-5-yl)methyl)adamantan-1-amine], the inhibition at 100 µM is reported as 0 to 30%.
`Brc1cnc(CNC23CC4CC(CC(C4)C2)C3)s1` [Example 86a, Adamantan-1-yl-(5-bromo-thiazol-2-ylmethyl)-amine] gave an inhibition at 100 µM of 0 to 30%.
For `O=c1ccc2cc(CNC34CC5CC(CC(C5)C3)C4)ccc2o1` [Example 42a, 6-((adamantan-1-ylamino)methyl)-2H-chromen-2-one], the inhibition at 100 µM was 0 to 30%.
Compound `CC(C)(C)c1ccc(CNC23CC4CC(CC(C4)C2)C3)cc1` [Example 7a, N-(4-(tert-Butyl)benzyl)adamantan-1-amine methanesulfonate] has an inhibition at 100 µM of 0 to 30%.
Work on `COc1ccc2cc(CNC34CC5CC(CC(C5)C3)C4)ccc2c1` [Example 40a, Adamantan-1-yl-(6-methoxy-naphthalen-2-ylmethyl)-amine] yielded an inhibition at 100 µM of 0 to 30%.
Work on `c1ccc(-c2noc(CNC34CC5CC(CC(C5)C3)C4)n2)cc1` [Example 123a, N-((3-phenyl-1,2,4-oxadiazol-5-yl)methyl)adamantan-1-amine] yielded an inhibition at 100 µM of 0 to 30%.
Compound `OC12CC3CC(C1)CC(NCc1cc4sccc4s1)(C3)C2` [Example 192a, 3-[(Thieno[3,2-b]thiophen-2-ylmethyl)-amino]-adamantan-1-ol] has an inhibition at 100 µM of 0 to 30%.
In the case of `Oc1cc(-c2ccoc2)ccc1CNC12CC3CC(CC(C3)C1)C2` [Example 46a], the inhibition at 100 µM is reported as 0 to 30%.
In the case of `c1csc(-c2ccc(-c3ccc(CNC45CC6CC(CC(C6)C4)C5)s3)s2)c1` [Example 157a, N-([2,2′:5′,2″-terthiophen]-5-ylmethyl)adamantan-1-amine], the inhibition at 100 µM is reported as 0 to 30%.
In the case of `FC(F)(F)c1cccc(-c2nc(CNC34CC5CC(CC(C5)C3)C4)no2)c1` [Example 125a, N-((5-(3-(trifluoromethyl)phenyl)-1,2,4-oxadiazol-3-yl)methyl)adamantan-1-amine], the inhibition at 100 µM is reported as 0 to 30%.
`COc1cccc(COc2ccc(CNC34CC5CC(CC(C5)C3)C4)cc2)c1` [Example 14a, Adamantan-1-yl-[4-(3-methoxy-benzyloxy)-benzyl]-amine] gave an inhibition at 100 µM of 0 to 30%.
Work on `COc1ccc(-c2cc(CNC34CC5CC(CC(C5)C3)C4)on2)cc1` [Example 122a, N-((3-(4-methoxyphenyl)isoxazol-5-yl)methyl)adamantan-1-amine] yielded an inhibition at 100 µM of 0 to 30%.

Same assay, conditions: Table 1; 100 uM; Xenopus oocytes, pH 5.5, -20 mV; read-out: S31 OOcyte Inhibition at 100 uM (%)
`Brc1ccc(CNC23CC4CC(CC(C4)C2)C3)cc1` [Example 41, N-(4-Bromobenzyl)adamantan-1-amine] showed an inhibition at 100 µM of 31 to 95%.
In the case of `Oc1cc(F)c(CNC23CC4CC(CC(C4)C2)C3)c(F)c1` [Example 69, 4-(Adamantan-1-ylaminomethyl)-3,5-difluoro-phenol], the inhibition at 100 µM is reported as 31 to 95%.
With `c1cc(CNC23CC4CC(CC(C4)C2)C3)ccn1` [Example 73, Adamantan-1-yl-pyridin-4-ylmethyl-amine] the inhibition at 100 µM was 31 to 95%.
`Fc1ccc(C(F)(F)F)cc1CNC12CC3CC(CC(C3)C1)C2` [Example 62, Adamantan-1-yl-(2-fluoro-5-trifluoromethyl-benzyl)-amine] was tested, and the inhibition at 100 µM was 0 to 30%.
`Oc1cccc(CNC23CC4CC(CC(C4)C2)C3)c1` [Example 31, 3-(Adamantan-1-ylaminomethyl)-phenol] showed an inhibition at 100 µM of 31 to 95%.
Work on `Oc1ccc(/C=N/C23CC4CC(CC(C4)C2)C3)cc1` [Example 6] yielded an inhibition at 100 µM of 31 to 95%.
For `Fc1ccc(CNC23CC4CC(CC(C4)C2)C3)cc1` [Example 27, Adamantan-1-yl-(4-fluoro-benzyl)-amine], the inhibition at 100 µM was 31 to 95%.
Work on `CC(=O)Nc1ccc(CNC23CC4CC(CC(C4)C2)C3)cc1` [Example 17, N-[4-(Adamantan-1-ylaminomethyl)-phenyl]-acetamide] yielded an inhibition at 100 µM of 0 to 30%.
Compound `c1ccc2oc(CNC34CC5CC(CC(C5)C3)C4)cc2c1` [Example 89, Adamantan-1-yl-benzofuran-2-ylmethyl-amine] has an inhibition at 100 µM of 0 to 30%.
`c1cc2cc(CNC34CC5CC(CC(C5)C3)C4)sc2o1` [Example 83, Adamantan-1-yl-thieno[2,3-b]furan-5-ylmethyl-amine] gave an inhibition at 100 µM of 31 to 95%.
Work on `FC(F)(F)Sc1ccc(CNC23CC4CC(CC(C4)C2)C3)cc1` [Example 26, Adamantan-1-yl-(4-trifluoromethylsulfanyl-benzyl)-amine] yielded an inhibition at 100 µM of 0 to 30%.
In the case of `c1cc2cn[nH]c2cc1CNC12CC3CC(CC(C3)C1)C2` [Example 95, Adamantan-1-yl-(1H-indazol-6-ylmethyl)-amine], the inhibition at 100 µM is reported as 31 to 95%.
Work on `c1ccc(CNC23CC4CC(CC(C4)C2)C3)nc1` [Example 72, Adamantan-1-yl-pyridin-2-ylmethyl-amine] yielded an inhibition at 100 µM of 0 to 30%.
`O=C(Oc1ccc(CNC23CC4CC(CC(C4)C2)C3)cc1)c1cccs1` [Example 37, Thiophene-2-carboxylic acid 4-(adamantan-1-ylaminomethyl)-phenyl ester] showed an inhibition at 100 µM of 0 to 30%.

Same assay, conditions: Table 3; 100 uM; Xenopus oocytes, pH 5.5, -20 mV; read-out: S31 OOcyte Inhibition at 100 uM (%)
`COc1ccsc1-c1cc(CNC23CC4CC(CC(C4)C2)C3)no1` [Example 44b, N-((5-(3-methoxythiophen-2-yl)isoxazol-3-yl)methyl)adamantan-1-amine] was tested, and the inhibition at 100 µM was 0 to 30%.
`COCc1nc(CNC23CC4CC(CC(C4)C2)C3)no1` [Example 23b, N-((5-(methoxymethyl)-1,2,4-oxadiazol-3-yl)methyl)adamantan-1-amine] was tested, and the inhibition at 100 µM was 0 to 30%.
With `c1nc(N2CCCCC2)ncc1CNC12CC3CC(CC(C3)C1)C2` [Example 58b, N-((2-(piperidin-1-yl)pyrimidin-5-yl)methyl)adamantan-1-amine] the inhibition at 100 µM was 0 to 30%.
In the case of `COc1ccc(-c2nc(CNC34CC5CC(CC(C5)C3)C4)no2)c(OC)c1` [Example 34b, N-((5-(2,4-dimethoxyphenyl)-1,2,4-oxadiazol-3-yl)methyl)adamantan-1-amine], the inhibition at 100 µM is reported as 0 to 30%.
`Cc1csc(-c2ccc(CNC34CC5CC(CC(C5)C3)C4)cc2)c1` [Example 5b, N-(4-(4-Methylthiophen-2-yl)benzyl)adamantan-1-amine] showed an inhibition at 100 µM of 0 to 30%.
Compound `CCCc1cc(CNC23CC4CC(CC(C4)C2)C3)no1` [Example 26b, N-((5-propylisoxazol-3-yl)methyl)adamantan-1-amine] has an inhibition at 100 µM of 0 to 30%.
In the case of `Clc1ccccc1-c1nc(CNC23CC4CC(CC(C4)C2)C3)no1` [Example 31b, N-((5-(2-chlorophenyl)-1,2,4-oxadiazol-3-yl)methyl)adamantan-1-amine], the inhibition at 100 µM is reported as 0 to 30%.
Work on `CC(C)(C)c1ccc(-c2ccc(CNC34CC5CC(CC(C5)C3)C4)s2)cc1` [Example 50b, N-((5-(4-(tert-Butyl)phenyl)thiophen-2-yl)methyl)adamantan-1-amine] yielded an inhibition at 100 µM of 0 to 30%.
`Nc1ncc(CNC23CC4CC(CC(C4)C2)C3)s1` [Example 19b] gave an inhibition at 100 µM of 0 to 30%.
For `CSc1ccc(-c2cc(CNCC34CC5CC(CC(C5)C3)C4)no2)cc1` [Example 40b, 1-((3r,5r,7r)-adamantan-1-yl)-N-((5-(4-(methylthio)phenyl)isoxazol-3-yl)methyl)methanamine], the inhibition at 100 µM was 0 to 30%.
`Cc1csc(CNC23CC4CC(CC(C4)C2)C3)n1` [Example 68b, Adamantan-1-yl-(4-methyl-thiazol-2-ylmethyl)-amine] was tested, and the inhibition at 100 µM was 31 to 95%.
Compound `Clc1ccccc1-c1ccc(CNC23CC4CC(CC(C4)C2)C3)nc1` [Example 72b, Adamantan-1-yl-[5-(2-chloro-phenyl)-pyridin-2-ylmethyl]-amine] has an inhibition at 100 µM of 0 to 30%.
`Oc1cc(Cl)ccc1CNC12CC3CC(CC(C3)C1)C2` [Example 9b, 2-((-Adamantan-1-ylamino)methyl)-5-chlorophenol] gave an inhibition at 100 µM of 31 to 95%.
